For assay [1], the target named is T1, hNav1.7 (Homo sapiens (Human), UniProt Q15858). Kind of assay: Tritiated compound binding to membranes from cells expressing hNav1.7 and the β1 subunit, modified protocol (LBA, Ex. 243B). The conditions noted are these: 300 pM [3H]compound, room temperature, read-out: Nav1.7 LBA (Ex. 243B) IC50.
Target sequence in this assay (Q15858 whole entry, looked up): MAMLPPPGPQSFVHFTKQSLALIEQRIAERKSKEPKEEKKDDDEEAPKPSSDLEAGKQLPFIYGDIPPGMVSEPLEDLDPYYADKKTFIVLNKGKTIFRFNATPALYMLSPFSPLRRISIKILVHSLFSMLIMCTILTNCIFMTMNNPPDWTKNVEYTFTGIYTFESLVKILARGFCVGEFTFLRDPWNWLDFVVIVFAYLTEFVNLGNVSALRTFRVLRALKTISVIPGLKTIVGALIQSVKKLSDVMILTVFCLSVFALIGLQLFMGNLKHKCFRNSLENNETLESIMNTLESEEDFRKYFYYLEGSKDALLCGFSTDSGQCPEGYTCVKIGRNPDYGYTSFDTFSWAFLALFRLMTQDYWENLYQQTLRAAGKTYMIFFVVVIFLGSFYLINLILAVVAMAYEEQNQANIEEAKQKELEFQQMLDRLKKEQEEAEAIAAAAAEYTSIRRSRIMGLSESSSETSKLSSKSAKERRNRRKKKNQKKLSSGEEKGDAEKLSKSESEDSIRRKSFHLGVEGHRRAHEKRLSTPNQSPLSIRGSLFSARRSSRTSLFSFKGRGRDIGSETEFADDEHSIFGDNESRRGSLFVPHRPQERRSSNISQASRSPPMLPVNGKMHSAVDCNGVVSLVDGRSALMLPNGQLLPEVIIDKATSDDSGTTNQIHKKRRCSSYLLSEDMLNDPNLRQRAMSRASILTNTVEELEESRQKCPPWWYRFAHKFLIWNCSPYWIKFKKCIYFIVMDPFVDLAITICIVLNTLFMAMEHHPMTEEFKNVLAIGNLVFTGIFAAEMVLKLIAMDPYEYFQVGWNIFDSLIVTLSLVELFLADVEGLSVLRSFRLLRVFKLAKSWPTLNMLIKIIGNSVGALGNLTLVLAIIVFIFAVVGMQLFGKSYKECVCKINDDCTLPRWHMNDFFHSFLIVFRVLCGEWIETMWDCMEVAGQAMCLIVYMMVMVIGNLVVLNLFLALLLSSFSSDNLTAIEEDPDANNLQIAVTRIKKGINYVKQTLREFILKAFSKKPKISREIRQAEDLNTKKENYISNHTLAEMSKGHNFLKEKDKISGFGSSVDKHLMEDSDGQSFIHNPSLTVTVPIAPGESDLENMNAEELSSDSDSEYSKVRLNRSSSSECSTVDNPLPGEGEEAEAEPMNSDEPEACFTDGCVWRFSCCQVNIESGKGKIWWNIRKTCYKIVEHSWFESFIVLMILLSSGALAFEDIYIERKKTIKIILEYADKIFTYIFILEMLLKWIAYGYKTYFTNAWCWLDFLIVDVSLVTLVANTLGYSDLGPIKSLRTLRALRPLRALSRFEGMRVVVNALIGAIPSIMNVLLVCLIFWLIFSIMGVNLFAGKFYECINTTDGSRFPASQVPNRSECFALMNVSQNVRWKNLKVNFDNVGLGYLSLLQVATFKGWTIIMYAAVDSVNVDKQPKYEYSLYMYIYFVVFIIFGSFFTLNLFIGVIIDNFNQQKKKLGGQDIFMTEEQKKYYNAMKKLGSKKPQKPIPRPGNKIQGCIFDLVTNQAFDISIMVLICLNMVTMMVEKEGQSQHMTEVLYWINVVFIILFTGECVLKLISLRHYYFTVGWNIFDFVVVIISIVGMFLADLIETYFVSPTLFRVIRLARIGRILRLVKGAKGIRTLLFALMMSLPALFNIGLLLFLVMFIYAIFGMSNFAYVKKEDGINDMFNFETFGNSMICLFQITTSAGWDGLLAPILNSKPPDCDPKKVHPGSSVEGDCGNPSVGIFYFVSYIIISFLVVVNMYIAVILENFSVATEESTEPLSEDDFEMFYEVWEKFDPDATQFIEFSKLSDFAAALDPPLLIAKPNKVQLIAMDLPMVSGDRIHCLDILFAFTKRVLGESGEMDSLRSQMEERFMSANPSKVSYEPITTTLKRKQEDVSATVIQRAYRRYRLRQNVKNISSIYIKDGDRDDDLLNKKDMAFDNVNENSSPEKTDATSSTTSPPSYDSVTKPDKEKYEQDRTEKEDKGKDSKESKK
Target sequence in this assay (Q07699 whole entry partner, looked up): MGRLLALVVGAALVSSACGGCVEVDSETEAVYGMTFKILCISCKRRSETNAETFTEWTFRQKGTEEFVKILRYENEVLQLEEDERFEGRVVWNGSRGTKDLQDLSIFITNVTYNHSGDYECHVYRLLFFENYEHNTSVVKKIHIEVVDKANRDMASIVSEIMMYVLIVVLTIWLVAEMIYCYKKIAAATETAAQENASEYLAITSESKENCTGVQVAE
Assay [2] concerns the target T1, hNav1.7. Kind of assay: Patch voltage clamp electrophysiology assay (EP), Syncropatch 384PE, CHO cells expressing Nav1.7. Format: cell-based. The conditions noted are these: read-out: EP_SP hNav1.7 (Ex. 243B) IC50. The procedure:
Electrophysiological Assay (EP) (In Vitro Assay)
The following voltage clamp electrophysiology studies were performed on representative compounds using cells heterologously expressing Nav1.7 or Nav1.5 channels. cDNAs for Nav1.7 (NM_002977) and Nav1.5 (AC137587) were stably expressed in Chinese Hamstr Ovary (CHO) cells and CHL (Chinese Hamster Lung) cells respectively. […] Internal solution consists of (in mM): 110 […], 10 […], 20 EGTA, and 10 Hepes (pH adjusted to 7.2); and external solution contains (in mM): 60 NMDG, 80 NaCl, 4 KCl, 1 MgCl2, 2 CaCl2, 2 D-Glucose monohydrate, 10 Hepes (pH adjusted to 7.4 with NaOH).
The chip is moved into the measuring head and the instrument primes the chip with external and internal solutions. […] cells are added to the chip from a cell hotel, and a negative pressure of −50 mBar is applied to form a seal. Following treatment with seal enhancer solution and wash-off with external solution, negative pressure of −250 mbar is applied for 1 second to achieve the whole-cell configuration, followed by three washing steps in external solution. 20 μl of compounds is added to 40 μl in each well (1:3 dilution of compounds), and after mixing, 20 μl is removed so the volume is retained at 40 μl.
For voltage protocol, an holding potential of −50 mV is applied during the whole experiment. A depolarizing step is applied to −10 mV for 10 ms, followed by a hyperpolarization step to −150 mV for 20 ms to allow channel recovery from inactivation. A second depolarizing step is applied from −150 mV to −10 mV for 10 ms, where currents were measured to derive blocking effects of compounds. Inhibition is determined based on 7.5 min of compound incubation.
Target sequence in this assay (Q15858 other isoform, or with tags, fused parts or gaps): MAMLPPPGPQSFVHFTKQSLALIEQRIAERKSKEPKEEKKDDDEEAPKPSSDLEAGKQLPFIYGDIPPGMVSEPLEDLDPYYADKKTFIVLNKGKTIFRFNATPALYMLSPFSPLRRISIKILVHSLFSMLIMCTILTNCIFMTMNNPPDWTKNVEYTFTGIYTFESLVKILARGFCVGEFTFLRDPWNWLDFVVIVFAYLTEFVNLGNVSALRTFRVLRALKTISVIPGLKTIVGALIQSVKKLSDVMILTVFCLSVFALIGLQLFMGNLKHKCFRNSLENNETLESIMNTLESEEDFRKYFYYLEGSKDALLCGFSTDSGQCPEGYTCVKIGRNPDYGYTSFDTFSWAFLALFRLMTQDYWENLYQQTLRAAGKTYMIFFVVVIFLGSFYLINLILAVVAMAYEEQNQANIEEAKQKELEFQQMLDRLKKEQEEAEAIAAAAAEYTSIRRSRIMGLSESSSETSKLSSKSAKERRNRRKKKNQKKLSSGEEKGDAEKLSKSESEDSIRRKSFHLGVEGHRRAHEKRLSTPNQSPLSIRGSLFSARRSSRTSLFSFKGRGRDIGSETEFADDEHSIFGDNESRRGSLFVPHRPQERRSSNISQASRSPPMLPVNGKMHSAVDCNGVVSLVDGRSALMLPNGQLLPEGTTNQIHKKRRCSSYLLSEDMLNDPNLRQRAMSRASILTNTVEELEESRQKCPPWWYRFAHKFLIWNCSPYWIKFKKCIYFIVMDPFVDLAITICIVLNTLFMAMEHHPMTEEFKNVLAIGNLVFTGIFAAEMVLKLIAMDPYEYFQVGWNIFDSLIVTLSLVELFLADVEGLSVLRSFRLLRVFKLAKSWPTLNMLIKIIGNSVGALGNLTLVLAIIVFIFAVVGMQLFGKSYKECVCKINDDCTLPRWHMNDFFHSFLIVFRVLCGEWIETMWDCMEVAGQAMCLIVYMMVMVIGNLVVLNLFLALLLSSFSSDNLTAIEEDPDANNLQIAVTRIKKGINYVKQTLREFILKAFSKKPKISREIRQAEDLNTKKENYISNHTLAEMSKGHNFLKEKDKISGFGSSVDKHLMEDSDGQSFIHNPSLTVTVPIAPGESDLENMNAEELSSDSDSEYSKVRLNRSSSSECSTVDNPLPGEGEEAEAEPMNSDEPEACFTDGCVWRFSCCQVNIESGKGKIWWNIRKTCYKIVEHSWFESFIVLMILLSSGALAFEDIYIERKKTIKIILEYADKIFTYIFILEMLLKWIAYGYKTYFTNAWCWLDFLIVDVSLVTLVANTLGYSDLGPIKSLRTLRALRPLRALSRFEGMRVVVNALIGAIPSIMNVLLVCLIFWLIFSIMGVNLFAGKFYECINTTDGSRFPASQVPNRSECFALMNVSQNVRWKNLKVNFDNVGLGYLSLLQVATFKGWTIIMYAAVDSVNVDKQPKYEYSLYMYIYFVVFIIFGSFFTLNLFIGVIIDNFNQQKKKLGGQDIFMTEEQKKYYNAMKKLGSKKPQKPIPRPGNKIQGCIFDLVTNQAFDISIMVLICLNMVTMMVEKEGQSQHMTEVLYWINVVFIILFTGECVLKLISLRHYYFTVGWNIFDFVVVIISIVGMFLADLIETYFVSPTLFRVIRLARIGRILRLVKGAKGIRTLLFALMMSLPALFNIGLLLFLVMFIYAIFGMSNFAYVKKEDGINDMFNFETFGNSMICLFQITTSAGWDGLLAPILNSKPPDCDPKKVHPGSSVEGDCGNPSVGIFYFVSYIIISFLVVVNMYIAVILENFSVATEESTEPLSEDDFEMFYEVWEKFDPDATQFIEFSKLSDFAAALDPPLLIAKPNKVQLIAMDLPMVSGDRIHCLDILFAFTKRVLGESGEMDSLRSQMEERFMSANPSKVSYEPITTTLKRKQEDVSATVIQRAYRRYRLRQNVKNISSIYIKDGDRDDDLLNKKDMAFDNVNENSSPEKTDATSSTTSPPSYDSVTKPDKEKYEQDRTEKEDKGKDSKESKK
In general terms: The patch-clamp technique gives a direct electrical read-out from membranes.

Where [3] appears, read: holding potential -50 mV, […] compound incubation.

As usually defined, the IC50 is the midpoint of a concentration-inhibition curve.

On to `CN1CC[C@@H]1C(=O)N(C)[C@H]1CCCC[C@@H]1Nc1cc(F)c(S(=O)(=O)Nc2nccs2)cc1Cl` [Example 205, (R)—N-((1S,2S)-2-((2-Chloro-5-fluoro-4-(N-(thiazol-2-yl)sulfamoyl)phenyl)amino)cyclohexyl)-N,1-dimethylazetidine-2-carboxamide], for which the IC50 in assay [1] is 556 nM; in assay [2] (setting [3]), 32.7 nM.
The like results for `N#C[C@H]1CCCN([C@H]2CCCC[C@@H]2Nc2cc(F)c(S(=O)(=O)Nc3nccs3)cc2Cl)C1` [Example 177, 5-chloro-4-(((1S,2S)-2-((S)-3-cyanopiperidin-1-yl)cyclohexyl)amino)-2-fluoro-N-(thiazol-2-yl)benzenesulfonamide] were, in that order, 60.9 nM and 2.91 nM.
For `CN(C1CCC1)[C@H]1C[C@@H](C(F)(F)F)CC[C@@H]1Nc1cc(F)c(S(=O)(=O)Nc2ccncn2)cc1Cl` [Example 180, 5-chloro-4-(((1S,2S,4S)-2-(cyclobutyl(methyl)amino)-4-(trifluoromethyl)cyclohexyl)amino)-2-fluoro-N-(pyrimidin-4-yl)benzenesulfonamide], the results for the IC50 in assay [1] and in assay [2] (setting [3]) were 666 nM and 49.5 nM, respectively.
The like results for `CN(C)[C@H]1C[C@@H](c2cccc(C(F)(F)F)c2)CC[C@@H]1Nc1cc(F)c(S(=O)(=O)Nc2ccncn2)cc1Br` [Example 227, 5-Bromo-4-(((1S,2S,4S)-2-(dimethylamino)-4-(3-(trifluoromethyl)phenyl)cyclohexyl)amino)-2-fluoro-N-(pyrimidin-4-yl)benzenesulfonamide] were, in that order, 0.69 nM and 1.19 nM.
Consider `CN(C1CN(C(=O)C2CC2)C1)[C@H]1CCCC[C@@H]1Nc1cc(F)c(S(=O)(=O)Nc2nccs2)cc1Cl` [Example 155, 5-Chloro-4-(((1S,2S)-2-((1-(cyclopropanecarbonyl)azetidin-3-yl)(methyl)amino)-cyclohexyl)amino)-2-fluoro-N-(thiazol-2-yl)benzenesulfonamide], for which the results for the IC50 in assay [1] and in assay [2] (setting [3]) were 130 nM and 12.3 nM, respectively.
As to `CN(C)[C@@H]1C[C@@H]2C[C@@H]2C[C@H]1Nc1cc(F)c(S(=O)(=O)Nc2nccs2)cc1Cl` [Example 215, 5-Chloro-4-(((1R,3R,4R,6S)-4-(dimethylamino)bicyclo[4.1.0]heptan-3-yl)amino)-2-fluoro-N-(thiazol-2-yl)benzenesulfonamide], the IC50 in assay [1] worked out at 2000 nM; in assay [2] (setting [3]), 286 nM.
The like results for `CN(C)[C@H]1C[C@@H](c2cccc(C(F)(F)F)c2)CC[C@@H]1Nc1cc(F)c(S(=O)(=O)Nc2ccon2)cc1Cl` [Example 228, 5-chloro-4-(((1S,2S,4S)-2-(dimethylamino)-4-(3-(trifluoromethyl)phenyl)cyclohexyl)amino)-2-fluoro-N-(isoxazol-3-yl)benzenesulfonamide] were, in that order, 5.78 nM and 0.846 nM.
The like results for `CN(C)[C@H]1CCC(c2cccc(C(F)(F)F)c2)C[C@@H]1Nc1cc(F)c(S(=O)(=O)Nc2ccncn2)cc1Cl` (stereo in doubt) [Example 120, 5-chloro-4-(((1S,2S,5R)-2-(dimethylamino)-5-(3-(trifluoromethyl)phenyl)cyclohexyl)amino)-2-fluoro-N-(pyrimidin-4-yl)benzenesulfonamide] were, in that order, 26.3 nM and 4.1 nM.
Turning to `O=S(=O)(Nc1nccs1)c1cc(Cl)c(N[C@H]2CCCC[C@@H]2N2CC3CC3C2)cc1F` (stereo partly drawn) [Example 160, 4-(((1S,2S)-2-(3-azabicyclo[3.1.0]hexan-3-yl)cyclohexyl)amino)-5-chloro-2-fluoro-N-(thiazol-2-yl)benzenesulfonamide], the 50% inhibitory concentration (IC50) is 20.3 nM in assay [1] and 2.27 nM in assay [2].
On to `CN(C)[C@H]1C[C@@H](c2cccc(OC(F)(F)F)c2)CC[C@@H]1Nc1cc(F)c(S(=O)(=O)Nc2ccncn2)cc1Cl` [Example 225, 5-Chloro-4-(((1S,2S,4S)-2-(dimethylamino)-4-(3-(trifluoromethoxy)phenyl)cyclohexyl)amino)-2-fluoro-N-(pyrimidin-4-yl)benzenesulfonamide], for which the IC50 amounted to 0.643 nM in assay [1] and 0.651 nM in assay [2] (setting [3]).

The record behind these values is patent publication US10457654B2 (GENENTECH, INC., priority 2017, dated 2019).
